# Values joined by “and” are separate entries in the source; they are usually repeats but may differ in a detail not shown here. Equal values may be shown once.
# System: 648629-189-R-J1-PDC spheroids with HUVEC/MSC, viability
# Assay: Anticancer human tumor 648629-189-R-J1-PDC patient-derived bladder carcinoma cell line growth inhibition [PI3K]
# Conditions: for viability, T/C: stronger effect = lower value
# Summary of the method: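 Viability of mixed-cell spheroids was determined after exposure to pairwise combinations, one partner being inavolisib, alpelisib, duvelisib or copanlisib. Highest tested concentration matched clinical Cmax where known and 10 microM where not, descending in half-log steps.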
# 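Further: spheroids exposed to agents for seven days before reading.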
# 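Wherever viability, T/C is given: percent of vehicle control luminescence where 100% = DMSO treated spheroids.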
Compound,"viability, T/C (compound 0.00949 µM)","viability, T/C (compound 0.03 µM)","viability, T/C (compound 0.0949 µM)","viability, T/C (compound 0.3 µM)","viability, T/C (compound 0.949 µM)","viability, T/C (compound 3 µM)",IC50 (curve of compound) [µM],"viability, T/C (compound 0.0316 µM)","viability, T/C (compound 0.1 µM)","viability, T/C (compound 0.316 µM)","viability, T/C (compound 1 µM)","viability, T/C (compound 3.16 µM)","viability, T/C (compound 10 µM)","IC50 (compound alone, run of 04/24/2023)"
Cn1cnc2c(F)c(Nc3ccc(Br)cc3Cl)c(C(=O)NOCCO)cc21,108% and 98.8% (2×) and 95.3%,96.8% [middle of 4 runs],99.2% [middle of 4 runs],94.5% [middle of 4 runs],103% [middle of 4 runs],84.9% [middle of 4 runs],> 3,–,–,–,–,–,–,–
C[C@@H](NC(=O)c1ncnc(N)c1Cl)c1ncc(C(=O)Nc2cc(C(F)(F)F)c(Cl)cn2)s1,–,–,–,–,–,–,> 10,105% [middle of 4 runs],98.5% [middle of 4 runs],103% [middle of 4 runs],106% and 107% (2×) and 91.5%,114% [middle of 4 runs],117% [middle of 4 runs],–
Cc1nc(NC(=O)N2CCCC2C(N)=O)sc1-c1ccnc(C(C)(C)C(F)(F)F)c1 (stereo unspecified),–,–,–,–,–,–,–,103% [middle of 8 runs],101% [middle of 8 runs],95.9% [middle of 8 runs],77.4% [middle of 8 runs],60% [middle of 8 runs],37.3% [middle of 8 runs],5.36 µM [middle of 8 runs]

# — PubChem BioAssay AID1963974 (Molecular Pharmacology Branch, DTP, NCI, 2024)
